Where “and” joins values, the source holds several entries; their conditions need not be identical. Equal values may be shown once.
Tests used:
[1] = test system: release of norepinephrine, acetylcholine and serotonin; conditions: dependence on added calcium; Smith et al, 1993; 1996; cited from earlier work
[2] = target: T1, cloned human Kv2.1 potassium channels (Homo sapiens, UniProt Q14721); experiment: Whole-cell patch clamp, cloned human Kv2.1 channels expressed in U-373MG cells; type: cell-based; conditions: for Kv 2.1 Current (% Control), Average: average of cells; for Kv 2.1 Current (% Control), single cells: individual cells
T1 construct: expressed in transfected cells; host or cells: U-373MG (G418 selection)
T1 sequence (Q14721 1-858): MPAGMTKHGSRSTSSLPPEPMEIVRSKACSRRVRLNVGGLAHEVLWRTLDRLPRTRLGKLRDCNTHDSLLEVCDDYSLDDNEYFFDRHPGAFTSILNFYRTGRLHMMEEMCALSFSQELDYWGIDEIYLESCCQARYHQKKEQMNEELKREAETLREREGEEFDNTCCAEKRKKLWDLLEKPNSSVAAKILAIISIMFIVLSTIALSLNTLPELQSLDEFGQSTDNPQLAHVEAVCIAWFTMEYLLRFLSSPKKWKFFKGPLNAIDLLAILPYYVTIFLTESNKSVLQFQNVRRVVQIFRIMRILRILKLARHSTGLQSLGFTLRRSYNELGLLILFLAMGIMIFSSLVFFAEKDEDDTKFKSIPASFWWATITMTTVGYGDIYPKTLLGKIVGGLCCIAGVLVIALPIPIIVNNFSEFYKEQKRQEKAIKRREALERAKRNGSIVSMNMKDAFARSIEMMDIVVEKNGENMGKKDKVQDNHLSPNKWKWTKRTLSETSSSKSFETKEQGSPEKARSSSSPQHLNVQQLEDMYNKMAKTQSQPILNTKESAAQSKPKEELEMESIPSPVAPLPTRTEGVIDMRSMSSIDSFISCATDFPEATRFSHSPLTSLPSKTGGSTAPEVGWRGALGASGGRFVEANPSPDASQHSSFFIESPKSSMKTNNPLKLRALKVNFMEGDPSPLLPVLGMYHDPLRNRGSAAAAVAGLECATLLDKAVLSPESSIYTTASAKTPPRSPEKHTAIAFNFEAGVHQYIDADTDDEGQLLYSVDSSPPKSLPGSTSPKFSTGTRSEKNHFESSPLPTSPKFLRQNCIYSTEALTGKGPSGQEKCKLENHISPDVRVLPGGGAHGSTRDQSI
Method: The purpose of this in vitro study was to evaluate the effects of HP184 on cloned human Kv2.1 potassium channels expressed in U-373MG cells using the whole-cell patch-clamping technique.
U-373MG cells expressing the human Kv2.1 channels were grown in DMEM media supplemented with 10% fetal bovine serum, 1×penicillin/streptomycin and […], G418 (Invitrogen, Carlsbad, Calif.) in an atmosphere of 95% air/5% CO2. Cells used for patch-clamping were seeded on glass or plastic coverslips 12-36 hours before use. Kv2.1 Currents were recorded at room temperature using the whole-cell configuration of the patch clamp technique with an Axopatch 200B amplifier (Axon Instruments, Foster City, Calif.). Briefly, electrodes (2-4 MΩ resistance) were fashioned from TW150F glass capillary tubes (World Precision Instruments, Sarasota, Fla.) and filled with pipette solution (in mM: potassium aspartate 120; KCl 20; Na2ATP 4; HEPES 5; MgCl2 1; pH 7.2 adjusted with KOH). For dose-dependently, currents were initiated by a 300-ms positive voltage pulse (20 mV) followed by a 50-ms negative pulse (−100 mV) and were recorded for off-line analyses. Once current from a cell perfused with control external solution (in mM: NaCl 130; KCl 5; sodium acetate 2.8; MgCl2 1; HEPES, 10; glucose 10; CaCl2 1 at pH7.4 adjusted with NaOH) was stabilized, the cell was perfused with external solution containing 1 μM HP184 (batch: R.C.4.53.3; molecular weight: 320.5; diluted from a 50 mM stock solution in DMSO; the DMSO final concentration in all drug solutions was not more than 0.06%). Currents were continuously recorded until they reached steady-state condition. The same procedure was performed with increasing concentrations of HP184 (3, 10 and 30 μM, sequentially). For each concentration from each cell, the steady-state current at the end of the 20-mV activation pulse was measured in pico Ampere (pA). The amplitude in pA for each concentration was compared with that for the control solution from the same cell and expressed as percent control (% control).

[3] = target: T2, voltage-gated potassium channels in hamster HIT-T15 insulinoma cells (Mesocricetus auratus, UniProt A0A3Q0CYQ2); experiment: Whole-cell patch clamp, voltage-gated potassium currents in HIT-T15 insulinoma cells; type: cell-based, Syrian Hamster; conditions: for Voltage-Gated Potassium Current (% Control), Average: average of cells; for Voltage-Gated Potassium Current (% Control), single cells: individual cells #1-#5
T2 construct: endogenous in cells; host or cells: HIT-T15 (Syrian hamster insulinoma)
T2 sequence (A0A3Q0CYQ2 1-857): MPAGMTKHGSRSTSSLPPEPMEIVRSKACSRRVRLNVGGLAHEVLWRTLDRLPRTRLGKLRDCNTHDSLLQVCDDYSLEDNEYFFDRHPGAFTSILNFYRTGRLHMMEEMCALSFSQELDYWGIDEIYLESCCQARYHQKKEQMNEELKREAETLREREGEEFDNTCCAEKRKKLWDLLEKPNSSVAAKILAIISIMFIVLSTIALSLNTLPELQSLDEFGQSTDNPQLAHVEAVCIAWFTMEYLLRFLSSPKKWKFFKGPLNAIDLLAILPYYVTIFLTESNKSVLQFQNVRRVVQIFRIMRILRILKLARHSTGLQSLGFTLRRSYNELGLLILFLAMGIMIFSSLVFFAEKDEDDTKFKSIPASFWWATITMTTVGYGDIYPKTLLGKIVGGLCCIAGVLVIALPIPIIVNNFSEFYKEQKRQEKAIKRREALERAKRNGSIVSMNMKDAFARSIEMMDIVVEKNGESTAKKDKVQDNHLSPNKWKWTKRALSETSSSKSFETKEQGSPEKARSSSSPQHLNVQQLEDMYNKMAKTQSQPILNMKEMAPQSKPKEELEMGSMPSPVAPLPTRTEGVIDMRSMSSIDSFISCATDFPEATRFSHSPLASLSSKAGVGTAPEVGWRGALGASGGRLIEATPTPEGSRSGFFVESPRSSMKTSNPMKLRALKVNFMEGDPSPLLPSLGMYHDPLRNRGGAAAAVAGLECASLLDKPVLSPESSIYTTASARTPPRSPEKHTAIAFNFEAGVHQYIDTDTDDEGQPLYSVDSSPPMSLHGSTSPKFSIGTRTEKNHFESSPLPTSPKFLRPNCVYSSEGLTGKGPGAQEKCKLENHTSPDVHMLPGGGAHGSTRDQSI
Method: The purpose of this in vitro study was to evaluate the effects of HP184 on voltage-gated potassium channels in hamster HIT-T15 insulinoma cells using the whole-cell patch-clamping technique.
HIT-T15 cells (from Syrian Hamster pancreas) expressing voltage-gated potassium channels were grown in RPMI media supplemented with 10% fetal bovine serum and 1×penicillin/streptomycin in an atmosphere of 95% air/5% CO2. Cells used for patch-clamping were seeded on glass or plastic coverslips 12-36 hours before use. Currents were recorded at room temperature using the whole-cell configuration of the patch clamp technique with an Axopatch 200B amplifier (Axon Instruments, Foster City, Calif.). Briefly, electrodes (3-6 MΩ resistance) were fashioned from TW150F glass capillary tubes (World Precision Instruments Sarasota, Fla.) and filled with pipette solution (in mM: potassium aspartate 120; KCl 20; Na2ATP 4; HEPES 5; MgCl2 1; pH 7.2 adjusted with KOH). Currents were initiated by a 300-ms positive voltage pulse (20 mV) followed by a 50-ms negative pulse (−100 mV) and were recorded for off-line analyses. Once current from a cell perfused with control external solution (in mM: NaCl 130; KCl 5; sodium acetate 2.8; MgCl2 1; HEPES, 10; glucose 10; CaCl2 1 at pH7.4 adjusted with NaOH) was stabilized, the cell was perfused with external solution containing 1 μM HP184 (batch: R.C.4.53.3; molecular weight: 320.5; diluted from a 50 mM stock solution in DMSO prepared daily; the DMSO final concentration in all drug solutions was not more than 0.06%). Currents were continuously recorded until they reached steady-state condition. The same procedure was performed with increasing concentrations of HP184 (3, 10 and 30 μM, sequentially). For each concentration from each cell, the steady-state current at the end of the 20-mV activation pulse was measured in pico Ampere (pA).
The amplitude in pA for each concentration was compared with that for the control solution from the same cell and expressed as percent control (% control).

Kv 2.1 Current (% Control), Average ([2]; 1 μM) [% Control]	Kv 2.1 Current (% Control), Average ([2]; 3 μM) [% Control]	Kv 2.1 Current (% Control), Average ([2]; 10 μM) [% Control]	Kv 2.1 Current (% Control), Average ([2]; 30 μM) [% Control]	IC50 ([2]; U-373MG cells expressing human Kv2.1, read-out: IC50, block of Kv2.1 current) [µM]	Voltage-Gated Potassium Current (% Control), Average ([3]; 1 μM) [% Control]	Voltage-Gated Potassium Current (% Control), Average ([3]; 3 μM) [% Control]	Voltage-Gated Potassium Current (% Control), Average ([3]; 10 μM) [% Control]	Voltage-Gated Potassium Current (% Control), Average ([3]; 30 μM) [% Control]	IC50 ([3]; HIT-T15 cells, steady-state current at end of 20-mV pulse, read-out: IC50, block of voltage-gated potassium currents) [µM]	Structure (SMILES)	Release of norepinephrine, acetylcholine and serotonin from rat brain slices (in words) [1]	Kv 2.1 Current (% Control), single cells ([2]; 1 μM)	Kv 2.1 Current (% Control), single cells ([2]; 3 μM)	Kv 2.1 Current (% Control), single cells ([2]; 10 μM)	Kv 2.1 Current (% Control), single cells ([2]; 30 μM)	Voltage-Gated Potassium Current (% Control), single cells ([3]; 1 μM)	Voltage-Gated Potassium Current (% Control), single cells ([3]; 3 μM)	Voltage-Gated Potassium Current (% Control), single cells ([3]; 10 μM)	Voltage-Gated Potassium Current (% Control), single cells ([3]; 30 μM)
–	–	–	–	–	–	–	–	–	–	Nc1ccncc1 [4-AP, 4-aminopyridine]	dependent on added calcium	–	–	–	–	–	–	–	–
91.7	72.3	28.3	10.4	5.6	85.7	62.5	17.2	1.4	3.9	CCCN(c1ccncc1F)n1cc(C)c2ccccc21 [HP184, N-(3-fluoro-4-pyridinyl)-N-propyl-3-methyl-1H-indole-1-amine]	–	98 % Control and 91.0 % Control and 89.2 % Control and 91.6 % Control and 95.0 % Control and 90.5 % Control (2×) and 94.5 % Control and 83.6 % Control and 91.8 % Control and 95.5 % Control	93.0 % Control and 63.1 % Control and 69.6 % Control and 62.9 % Control and 68.5 % Control and 70.8 % Control and 87.5 % Control and 86.1 % Control and 88.5 % Control and 79.9 % Control and 89.7 % Control	58.2 % Control and 19.9 % Control and 37.7 % Control and 24.4 % Control and 17.1 % Control and 38.5 % Control and 43.8 % Control and 13.1 % Control and 19.1 % Control and 12.5 % Control	22.1 % Control and 13.7 % Control (2×) and 16.2 % Control and 6.7 % Control and 1.4 % Control and 12.8 % Control and 4.8 % Control (2×) and 8.7 % Control	95.1 % Control and 84.7 % Control and 80.9 % Control and 85.4 % Control and 82.6 % Control	86.4 % Control and 61.5 % Control and 46.4 % Control and 58.8 % Control and 59.3 % Control	34.0 % Control and 9.1 % Control and 12.6 % Control (2×) and 17.8 % Control	2.6 % Control and 0.8 % Control and 0.9 % Control and 1.2 % Control
